The values that follow come from article PMC12064818, “A general assay platform to study protein pharmacology using ligand-dependent structural dynamics” (Nature Communications, 2025).

For the test, the target named is T1, FLuc-C-HiBiT (Photinus pyralis, UniProt P08659).
T1 construct: firefly luciferase with C-terminal HiBiT tag, E. coli expressed
In words: biochemical. The conditions noted are these: enzyme activity, 10 uM ATP; read-out: IC50 or SDR50 (mM) / FLuc E.

T1 sequence (P08659 whole entry, looked up): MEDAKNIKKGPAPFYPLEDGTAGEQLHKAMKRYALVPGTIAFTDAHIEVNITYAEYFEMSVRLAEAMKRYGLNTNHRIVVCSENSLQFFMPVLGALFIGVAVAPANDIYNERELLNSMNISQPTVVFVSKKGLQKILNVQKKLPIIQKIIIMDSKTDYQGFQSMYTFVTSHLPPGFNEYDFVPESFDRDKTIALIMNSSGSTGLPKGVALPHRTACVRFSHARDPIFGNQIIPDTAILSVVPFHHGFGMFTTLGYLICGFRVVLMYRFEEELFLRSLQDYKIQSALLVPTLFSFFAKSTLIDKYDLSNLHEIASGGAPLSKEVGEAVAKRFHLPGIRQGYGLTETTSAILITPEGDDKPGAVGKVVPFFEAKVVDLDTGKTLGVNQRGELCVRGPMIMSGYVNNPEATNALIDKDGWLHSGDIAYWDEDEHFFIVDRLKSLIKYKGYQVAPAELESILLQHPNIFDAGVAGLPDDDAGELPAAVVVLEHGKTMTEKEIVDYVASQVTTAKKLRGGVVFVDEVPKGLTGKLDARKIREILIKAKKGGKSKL

In the case of `O=C(Nc1nc2c(F)cccc2s1)c1ccc2c(c1)OCCO2` [NCGC00141660-01], the IC50 came to 0.495 µM.
In the case of `O=C(Nc1c(C(=O)O)oc2ccccc12)c1ccc(C(F)(F)F)cc1` [NCGC00141808-01], the IC50 worked out at 9.89 µM.
For the molecule `NC(=O)C1CCN(c2ncnc3c2cnn3-c2ccccc2)CC1` [NCGC00141852-02], the IC50 is greater than 30 µM.
The value for `CCN(CC)CCOc1ccc(-c2nc3cc(Cl)ccc3s2)cc1` [NCGC00160568-01] was 25.4 µM; that for `Cn1cc(/C=C2\C(=O)Nc3cccnc32)c2ccccc21` [NCGC00161398-03] was 9.89 µM.
In the case of `Cc1ccc2nc(-c3ccc(/N=N/c4cc(S(=O)(=O)O)c5ccccc5c4O)cc3)sc2c1S(=O)(=O)O` [NCGC00161973-01] it was 12.4 µM; in that of `C=C1[C@H](CO)[C@@H](O)C[C@@H]1n1cnc2c(=O)[nH]c(N)nc21` [NCGC00164563-11], greater than 30 µM.
In the case of `CCc1nn2c(-c3ccco3)ccnc2c1-c1ccc(F)cc1` [NCGC00164922-01] it was 7.85 µM.
On to `Clc1ccc2c(c1)-n1cc(-c3ccccc3)nc1CO2` [NCGC00164952-01], for which the IC50 was greater than 30 µM.
Turning to `Nc1ccc(-c2nc3ccccc3s2)cc1` [NCGC00165328-03], the IC50 came to 1.76 µM.
The value for `CC[n+]1c(/C=C/N(C)c2ccccc2)n(-c2ccccc2)c2ccc(-c3nc4ccccc4s3)cc21` [NCGC00165744-02] was 17.6 µM.
The value for `CNc1ccc(-c2nc3ccccc3s2)cc1` [NCGC00165760-02] was 0.0785 µM; that for `Nc1nccc(-c2c(-c3ccc(F)cc3)ncn2C2CCNCC2)n1` [NCGC00165900-01] was greater than 30 µM; that for `COc1ccc(OC)c(-c2nc3ccc(OC)cc3s2)c1` [NCGC00167604-01] was 8.81 µM.
The value for `COc1ccc2nc(-c3ccc(Oc4ccccc4)cc3)sc2c1` [NCGC00167605-01] was 11.1 µM.
As for `C=Cc1ccc(-c2nc3ccc(OC)cc3s2)cc1` [NCGC00167606-01], the IC50 was 0.442 µM.
With `COc1ccc2nc(-c3cccc(C(C)=O)c3)sc2c1` [NCGC00167608-01], the IC50 came to 1.24 µM.
The value for `COc1ccc2nc(-c3ccc(N4CCN(C(=O)OC(C)(C)C)CC4)cc3)sc2c1` [NCGC00167609-02] was 14 µM.
On to `CN(C(=O)OC(C)(C)C)c1ccc(-c2nc3ccccc3s2)cc1` [NCGC00167619-02], for which the IC50 came out at 0.0989 µM.
As to `CC(=O)c1cccc(-c2nc3ccccc3s2)c1` [NCGC00167620-01], the IC50 is 9.89 µM.
In the case of `c1ccc(COc2cccc(-c3nc4ccccc4s3)c2)cc1` [NCGC00167622-01] it was 4.95 µM; in that of `c1ccc(COc2ccccc2-c2nc3ccccc3s2)cc1` [NCGC00167623-01], 12.4 µM; in that of `FC(F)(F)c1cc(-c2nc3ccccc3s2)cc(C(F)(F)F)c1` [NCGC00167627-01], 12.4 µM.
For `O=C(O)c1ccc(-c2noc(-c3ccccc3F)n2)cc1` [NCGC00168096-02], the IC50 was 0.197 µM.
On to `O=C(O)c1ccc(-c2noc(-c3cccc(F)c3)n2)cc1` [NCGC00168097-02], for which the IC50 came out at 4.95 µM.
The value for `O=C(O)c1ccc(-c2noc(-c3ccc(F)cc3)n2)cc1` [NCGC00168098-01] was 0.442 µM; that for `O=C(O)c1ccc(-c2noc(-c3ccccc3Cl)n2)cc1` [NCGC00168099-01] was 1.11 µM; that for `O=C(O)c1ccc(-c2noc(-c3cccc(Cl)c3)n2)cc1` [NCGC00168100-03] was 7 µM.
In the case of `O=C(O)c1ccc(-c2noc(-c3ccc(Cl)cc3)n2)cc1` [NCGC00168101-01] it was 0.785 µM.
In the case of `COc1ccccc1-c1nc(-c2ccc(C(=O)O)cc2)no1` [NCGC00168102-02] it was 1.97 µM.
For `COc1ccc(-c2nc(-c3ccc(C(=O)O)cc3)no2)cc1` [NCGC00168104-02], the IC50 worked out at 0.111 µM.
In the case of `O=C(O)c1ccc(-c2noc(-c3ccccc3C(F)(F)F)n2)cc1` [NCGC00168105-01] it was 12.4 µM; in that of `O=C(O)c1ccc(-c2noc(-c3cccc(C(F)(F)F)c3)n2)cc1` [NCGC00168106-02], 8.81 µM; in that of `O=C(O)c1ccc(-c2noc(-c3ccc(C(F)(F)F)cc3)n2)cc1` [NCGC00168758-01], 0.313 µM.
In the case of `O=C(O)c1cccc(-c2noc(-c3ccccc3F)n2)c1` [NCGC00168759-10] it was 0.00624 µM; in that of `O=C(O)c1cccc(-c2noc(-c3cccc(F)c3)n2)c1` [NCGC00168760-01], 0.007 µM.
`O=C(O)c1cccc(-c2noc(-c3ccc(F)cc3)n2)c1` [NCGC00168761-01]: the IC50 amounted to 0.00442 µM.
The value for `O=C(O)c1cccc(-c2noc(-c3ccccc3Cl)n2)c1` [NCGC00168762-01] was 0.00351 µM.
The value for `O=C(O)c1cccc(-c2noc(-c3cccc(Cl)c3)n2)c1` [NCGC00168763-01] was 0.007 µM; that for `O=C(O)c1cccc(-c2noc(-c3ccc(Cl)cc3)n2)c1` [NCGC00168764-01] was 0.00221 µM; that for `COc1ccccc1-c1nc(-c2cccc(C(=O)O)c2)no1` [NCGC00168765-01] was 0.00624 µM.
In the case of `COc1cccc(-c2nc(-c3cccc(C(=O)O)c3)no2)c1` [NCGC00168766-01] it was 0.00394 µM; in that of `COc1ccc(-c2nc(-c3cccc(C(=O)O)c3)no2)cc1` [NCGC00168767-01], 0.00248 µM; in that of `O=C(O)c1cccc(-c2noc(-c3ccccc3C(F)(F)F)n2)c1` [NCGC00168768-02], 0.0624 µM.
Take `O=C(O)c1cccc(-c2noc(-c3cccc(C(F)(F)F)c3)n2)c1` [NCGC00168769-01]: the IC50 was determined as 0.0157 µM.
Take `O=C(O)c1cccc(-c2noc(-c3ccc(C(F)(F)F)cc3)n2)c1` [NCGC00168770-01]: the IC50 was found to be 0.00351 µM.
In the case of `Nc1ncnc2c1ncn2[C@@H]1O[C@H](CO)[C@@H](O)[C@@H]1O` [NCGC00178869-10], the IC50 is greater than 30 µM.
For `COC(=O)c1cccc(-c2noc(-c3ccccc3F)n2)c1` [NCGC00183594-01], the IC50 amounted to 3.51 µM.
The value for `O=C(O)c1ccccc1-c1noc(-c2ccccc2F)n1` [NCGC00183910-01] was 15.7 µM; that for `Cc1ccc(-c2nc3ccccc3s2)cc1NC(=O)c1ccc(-c2cccc(Cl)c2)o1` [NCGC00187468-01] was greater than 30 µM; that for `CCOc1ccc(C(=O)Nc2ccc(-c3nc4ccccc4s3)cc2)cc1[N+](=O)[O-]` [NCGC00188053-01] was greater than 30 µM.
In the case of `Oc1cc(-c2nc3ccccc3s2)cc2c1OCCN(Cc1cccn1-c1nccs1)C2` [NCGC00238878-01] it was greater than 30 µM; in that of `Cc1cc2c(c(-c3nc4ccccc4s3)c1)OC(CNC(=O)CCc1cccnc1)C2` (stereo not drawn) [NCGC00239520-01], 17.6 µM; in that of `Oc1cc(-c2nc3ccccc3s2)cc2c1OCCN(Cc1cccn1-c1ncccn1)C2` [NCGC00239686-01], greater than 30 µM.
As to `Cc1noc(C)c1CC(=O)N1CCOc2c(cc(-c3nc4ccccc4s3)cc2OC2CCOC2)C1` (stereo not drawn) [NCGC00239833-01], the IC50 is greater than 30 µM.
In the case of `O=C(c1ccccc1C(F)(F)F)N1CCOc2c(cc(-c3nc4ccccc4s3)cc2OC2CCOC2)C1` (stereo not drawn) [NCGC00240022-01] it was greater than 30 µM; in that of `c1ccc2sc(-c3cc4c(c(OC5CCOC5)c3)OCCN(Cc3cccn3-c3nccs3)C4)nc2c1` (stereo not drawn) [NCGC00240062-01], greater than 30 µM; in that of `CC(CCc1ccc(O)cc1)N1CCOc2c(O)cc(-c3nc4ccccc4s3)cc2C1` (stereo not drawn) [NCGC00240078-01], greater than 30 µM.
Consider `Oc1cc(-c2nc3ccccc3s2)cc2c1OCCN(Cc1cccn1-c1ccccn1)C2` [NCGC00240089-01], for which the IC50 was greater than 30 µM.
In the case of `Oc1cc(-c2nc3ccccc3s2)cc2c1OCCN(Cc1cccn1-c1ccc(Cl)cn1)C2` [NCGC00240283-01] it was greater than 30 µM; in that of `COc1ccc(C(=O)NCC2Cc3cc(C)cc(-c4nc5ccccc5s4)c3O2)c(OC)c1OC` (stereo not drawn) [NCGC00240387-01], greater than 30 µM.
In the case of `Cc1cc2c(c(-c3nc4ccccc4s3)c1)OC(CNC(=O)c1occc1C)C2` (stereo not drawn) [NCGC00240406-01] it was 12.4 µM; in that of `Oc1ccc(Cl)cc1CN1CCOc2c(O)cc(-c3nc4ccccc4s3)cc2C1` [NCGC00240488-01], greater than 30 µM; in that of `Oc1cc(-c2nc3ccccc3s2)cc2c1OCCN(Cc1c[nH]nc1-c1ccc(Cl)cc1)C2` [NCGC00240676-01], greater than 30 µM.
Consider `Cc1c(CN2CCOc3c(O)cc(-c4nc5ccccc5s4)cc3C2)cnn1C` [NCGC00240749-01], for which the IC50 is greater than 30 µM.
On to `COC(=O)c1ccc2c(c1)C(=Cc1cc(Br)c(O)c(Br)c1)C(=O)N2` [NCGC00242004-02], for which the IC50 is 9.89 µM.
As to `Cc1ccc(C(=O)NC2CC2)cc1-c1ccc2[nH]ncc2c1` [NCGC00242033-03], the IC50 is greater than 30 µM.
For the molecule `CN(c1ccc(NC(=O)Nc2ccc(OC(F)(F)F)cc2)cc1)c1ccnc(Nc2cccc([S+](N)(=O)[O-])c2)n1` [NCGC00242042-02], the IC50 was greater than 30 µM.
For `COc1cccc(-n2cnc3c(N/N=C/c4ccncc4)ncnc32)c1` [NCGC00242129-02], the IC50 turned out to be 17.6 µM.
In the case of `O=C(Nc1n[nH]c2cc(-c3ccccc3)ccc12)C1CC1` [NCGC00242141-02] it was 12.4 µM.
The value for `c1ccc(Nc2ncc(-c3ccccc3)o2)cc1` [NCGC00242146-02] was 0.785 µM.
In the case of `O=C1Nc2ccc(C(=O)c3ccco3)cc2C1=Cc1cc(Cl)c(O)c(Cl)c1` [NCGC00242150-05] it was 11.1 µM; in that of `N[S+](=O)([O-])c1cccc(N/C=C2\C(=O)Nc3ccccc32)c1` [NCGC00242167-02], greater than 30 µM; in that of `N#Cc1c(NC(=O)c2cccc3ccccc23)sc2c1CCCC2` [NCGC00242227-03], greater than 30 µM.
In the case of `O=C(Nc1ccccc1C(=O)O)c1ccccc1` [NCGC00245456-03], the IC50 turned out to be 12.4 µM.
In the case of `O=C(O)c1cccc(-c2noc(-c3cc([N+](=O)[O-])cc([N+](=O)[O-])c3)n2)c1` [NCGC00250195-01] it was 3.13 µM.
On to `O=C(O)c1cccc(-c2noc(-c3cccc([N+](=O)[O-])c3)n2)c1` [NCGC00253775-01], for which the IC50 turned out to be 0.007 µM.
As for `Nc1ncnc2c1ncn2[C@H]1O[C@H](CO)[C@@H](O)[C@@H]1O` [NCGC00262556-01], the IC50 was greater than 30 µM.
